The IC50 is the concentration that inhibits the measured activity by half. Broadly, the CC50 is the concentration that lowers cell viability or growth by half.

Where two headings read alike, the source gives them in different places.

What all share (assay type): cell-based
In series [1] the test system is chloroquine-resistant P. falciparum (K1) strain. As to the kind of experiment: In vitro antimalarial activity, pLDH assay. The settings on record: Plasmodium falciparum. Here is the method:
P. falciparum was cultured according to the method of Trager and Jensen with some modifications. The parasites were cultured in noninfected human red blood cells (2% hematocrit) using RPMI 1640 medium that was supplemented with 0.5% Albumax II, 10 µg/ml hypoxanthine, 2.5 µg/ml gentamicin, 4.8 mg/ml HEPES and buffered with 2 mg/ml sodium bicarbonate as described previously in our previous study. All the chemicals and reagents used for culturing were purchased from Sigma–Aldrich, New Delhi, India and Gibco, Waltham, MA USA. The culture was maintained at 37 °C in a CO2 incubator. The culture medium was changed, and Giemsa-stained slides were prepared daily to monitor parasitemia.
The in vitro antimalarial activity of the isolated compounds was assessed on cultured P. falciparum using the Plasmodium lactate dehydrogenase (pLDH) assay described by Makler with some modifications. Briefly, the compounds were individually dissolved in DMSO to obtain a stock solution of 1 mM, and the solution was then diluted to a final working concentration of 0.78–100 µM. […] Parasitized red blood cells (2% hematocrit, 2% parasitemia) were aliquoted into a 96-well cell culture plate, and then the infected red cells were exposed. The tested compound was added to 96-well plates and incubated at 37 °C for 72 h in a CO2 incubator. At the end of incubation, the plates were subjected to three freeze/thaw cycles (frozen at -20 °C and thawed at 37 °C) for complete hemolysis. The lysed cells were transferred to a new 96-well plate that contained a mixture of 100 µl of Malstat reagent and 20 µl of nitroblue tetrazolium/phenazine ethosulfate solution (Calbiochem®, Sigma–Aldrich, New Delhi, India) and were incubated for 1 h in the dark. The experiments were performed in triplicate. These solutions were used to determine the activity of the lactate dehydrogenase (LDH) enzyme in the cultures. When LDH was present, a purple product was formed, and the optical density was measured using a microplate reader at a wavelength of 650 nm. The concentrations at which 50% inhibition of parasite growth (IC50) was calculated using a nonlinear regression curve contained in GraphPad PRISM version 6 (GraphPad Software, Inc., La Jolla, CA, USA).

Series [2] can be described thus: In vitro cytotoxicity, MTT assay, Vero cells. The settings on record: African green monkey, 5 to 80 µM, read-out: CC50 Vero cell. The procedure: (§1) The toxicity of isolated compounds was assessed by a 3-(4,5-dimethythiazol2-yl)-2,5-diphenyl tetrazolium bromide (MTT) assay according to a previous method. Briefly, Vero cells, a normal mammalian cell line or HepG2 human hepatoma cell line, were seeded into 96-well plates (10^4 cell/ml) and incubated for 24 h at 37 °C with 5% CO2. Cells were then treated with various concentrations of the tested compounds ranging from 5 to 80 µM, and the final concentration of DMSO in the tested dilutions was not higher than 1% for 48 h at 37 °C with 5% CO2. Subsequently, MTT solution was added to each well, and the plate was incubated for 2 h in a CO2 incubator. The medium was then removed, and 100 µl of DMSO was added to each well. The negative control was performed using growth medium alone instead of the tested compounds, while doxorubicin (Sigma–Aldrich, New Delhi, India) was used as the positive toxic control. The assay was performed in triplicates. Finally, the optical density was determined using a microplate reader at a wavelength of 590 nm. The 50% cytotoxic concentration (CC50) was calculated using a nonlinear regression curve contained in GraphPad PRISM version 6 (GraphPad Software, Inc., La Jolla, CA, USA).
In general terms: Tetrazolium dyes change colour on reduction, which living cells bring about.

Series [3] in a line: In vitro cytotoxicity, MTT assay, HepG2 cells. The settings on record: human, 5 to 80 µM. Here is the method:
as §1

Setting [4] is: P. falciparum K1, pLDH assay, 72 h, mean ± S.D. of three determinations, read-out: IC50 K1.

For the compound `C[C@H]1[C@H](OC(=O)CCC(=O)O)O[C@@H]2O[C@@]3(C)CC[C@H]4[C@H](C)CC[C@@H]1[C@@]24OO3` [Artesunate, reference compound], the half-maximal inhibitory concentration (IC50) in series [1] (P. falciparum K1, pLDH assay, 72 h, positive control, IC50 unit expressed in nM (footnote), read-out: IC50 K1 (positive control)) amounted to 0.53 ± 0.04 nM.
Take `C=C(C)[C@@H]1CC[C@]2(C)CC[C@]3(C)[C@H](CC[C@@H]4[C@@]5(C)CC[C@H](O)C(C)(C)[C@@H]5CC[C@]43C)[C@@H]12` [Compound 1, lupeol]: the IC50 in series [1] (setting [4]) is 18800 ± 3450 nM. The half-maximal cytotoxic concentration (CC50) at 48 h in series [2] (Vero cells) is more than 80 µM; in series [3] (HepG2 cells), 29.3 ± 1.47 µM.
In the same order, the values of `COc1ccc2c(=O)c3cccc(O)c3oc2c1O` [Compound 2, 4,5-dihydroxy-3-methoxyxanthone] are 21000 ± 3560 nM, more than 80 µM and more than 80 µM.
Regarding `O=c1c2ccccc2oc2c(O)cccc12` [Compound 3, 4-hydroxyxanthone], the IC50 in series [1] (K1, 72 h, read-out: IC50 K1) was 68600 ± 2540 nM. For the same compound, the values for the cytotoxic concentration (CC50) at 48 h in series [2] and in series [3] were 48.1 ± 1.68 µM and 46.1 ± 1.66 µM, respectively.
Consider `O=c1c2cc(O)ccc2oc2cccc(O)c12` [Compound 4, 1,7-dihydroxyxanthone], for which the half-maximal inhibitory concentration (IC50) in series [1] (K1, 72 h, read-out: IC50 K1) amounted to 41700 ± 2230 nM. Further, the CC50 at 48 h in series [2] (Vero cells) was determined as 7.9 ± 0.9 µM; in series [3] (HepG2 cells), 13.3 ± 1.12 µM.
Take `CC(C)CC(=O)c1c2c(c3oc(=O)cc(-c4ccccc4)c3c1O)C=CC(C)(C)O2` [Compound 6, mammea A/AA cyclo D]: the IC50 in series [1] (setting [4]) came to 45600 ± 3120 nM. The CC50 at 48 h in series [2] (Vero cells) and in series [3] (HepG2 cells) was more than 80 µM in each case.
As for `CC(C)CC(=O)c1c2c(c3oc(=O)cc(-c4ccccc4)c3c1O)C[C@H](C(C)(C)O)O2` [Compound 7, mammea A/AA cyclo F], the IC50 in series [1] (setting [4]) was 49890 ± 420 nM. Besides, the CC50 at 48 h in series [2] (Vero cells) and in series [3] (HepG2 cells) was more than 80 µM in each case.
Take `O=c1c2ccc(O)cc2oc2cccc(O)c12` [Compound 8, 1,6-dihydroxyxanthone]: in series [1] (setting [4]), the 50% inhibitory concentration (IC50) is 47900 ± 5160 nM. In addition, the CC50 at 48 h in series [2] and in series [3] was more than 80 µM throughout.
With `COc1cc2c(=O)c3c(O)cccc3oc2c(OC)c1OC` [Compound 9, 1-hydroxy-5,6,7-trimethoxyxanthone], the IC50 in series [1] (setting [4]) amounted to 9570 ± 1590 nM. Moreover, the CC50 at 48 h in series [2] (Vero cells) and in series [3] (HepG2 cells) was more than 80 µM in each case.
On to `O=c1c2cccc(O)c2oc2c(O)c(O)ccc12` [Compound 10, 3,4,5-trihydroxyxanthone], for which, in series [1] (setting [4]), the IC50 is 15500 ± 2630 nM. The cytotoxic concentration (CC50) at 48 h in series [2] (Vero cells) and in series [3] (HepG2 cells) was more than 80 µM throughout.
For `COc1cccc2oc3c(O)cccc3c(=O)c12` [Compound 11, 5-hydroxy-1-methoxyxanthone], the IC50 in series [1] (setting [4]) stood at 29300 ± 4440 nM. Besides, the CC50 at 48 h in series [2] (Vero cells) and in series [3] (HepG2 cells) was more than 80 µM each time.
On to `O=c1c2ccccc2oc2ccc(O)cc12` [Compound 12, 2-hydroxyxanthone], for which the IC50 in series [1] (K1, 72 h, read-out: IC50 K1) amounted to 75000 ± 880 nM. In addition, the CC50 at 48 h in series [2] and in series [3] was more than 80 µM throughout.
`COc1ccc2c(=O)c3c(O)cccc3oc2c1O` [Compound 13, 1,5-dihydroxy-6-methoxyxanthone]: the 50% inhibitory concentration (IC50) in series [1] (setting [4]) is 22300 ± 1670 nM. Further, the CC50 at 48 h was more than 80 µM in series [2] (Vero cells) and 30.5 ± 1.49 µM in series [3] (HepG2 cells).
As for `COc1cccc2c1C(=O)c1c(O)c3c(c(O)c1C2=O)C[C@@](O)(C(=O)CO)C[C@@H]3O[C@H]1C[C@H](N)[C@H](O)[C@H](C)O1` [Doxorubicin, reference compound], the CC50 at 48 h worked out at 1.46 ± 0.16 µM in series [2] (Vero cells) and 1.11 ± 0.05 µM in series [3] (HepG2 cells).

These data come from article PMC9554980, “Antimalarial potential of compounds isolated from Mammea siamensis T. Anders. flowers: in vitro and molecular docking studies” (BMC Complementary Medicine and Therapies, 2022).
